Experimental data: US11254640B2, “N-substituted indoles and other heterocycles for treating brain disorders” (The Regents of the University of California, priority 2019, dated 2022)

Columns and labels:
5HT2A sensor [1] = assay: 5HT2A sensor assay, agonist mode (sLight1.3s HEK293T stable line); type: cell-based; conditions: for activation of 5HT2A sensor assay in agonist mode at 10 μM: 10 μM of compound (FIG. 11); for activation of 5HT2A sensor assay in agonist mode (dose response): dose response (FIG. 10)
Method in brief: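 Agonist mode in HEK293T cells stably expressing the sLight1.3 5HT2A sensor, washed into HBSS; compounds at final 100 μM, 10 μM and 100 nM (0.1% DMSO), triplicate wells. Membrane fluorescence (ex 460, em 512-542 nm) imaged before and after addition; dFF=(Fsat−Fapo)/Fapo, expressed as percent activation (DMSO=0, 5HT=100).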

cortical neurons [2] = assay: Dendritogenesis assay, Sholl analysis; type: cell-based, rat; conditions: Rattus norvegicus, Cortical neurone; 10 μM; Nmax with vehicle (DMSO) = 0% and ketamine = 100%; read-out: % efficacy in sholls
Text: Dendritogenesis Assays. Phenotypic screening has historically proven more successful than target-based approaches for identifying drugs with novel mechanisms of action. Having established a simple and robust method for accessing isoDMT analogs, tested next was their ability to increase dendritic arbor complexity in cultures of cortical neurons using a phenotypic assay. Following treatment, neurons were fixed and visualized using an antibody against MAP2—a cytoskeletal protein localized to the somatodendritic compartment of neurons. Sholl analysis was then performed, and the maximum number of crossings (Nmax) was used as a quantitative metric of dendritic arbor complexity. For statistical comparisons between specific compounds, the raw Nmax values were compared. Percent efficacies were determined by setting the Nmax values for the vehicle (DMSO) and positive (ketamine) controls equal to 0% and 100%, respectively.
(§1) Animals. For the dendritogenesis experiments, timed pregnant Sprague Dawley rats were obtained from Charles River Laboratories (Wilmington, Mass.). For the head-twitch response assay, male and female C57BL/6J mice were obtained from Jackson Laboratory (Sacramento, Calif.). Mice were housed in a temperature and humidity-controlled room maintained on a 12-h light/dark cycle in groups of 4-5 (same sex). Animals weighed between 17 and 30 g at the time of the experiments. All experimental procedures involving rodents were approved by the UC Davis Institutional Animal Care and Use Committee (IACUC) and adhered to principles described in the National Institutes of Health Guide for the Care and Use of Laboratory Animals. The University of California, Davis and the University of California, San Francisco are accredited by the Association for Assessment and Accreditation of Laboratory Animal Care International (AAALAC).
Dendritogenesis—Sholl Analysis. Dendritogenesis experiments were performed following a previously published method with slight modifications. Neurons were plated in 96-well format (200 μL of media per well) at a density of approximately 15,000 cells/well in Neurobasal (Life Technologies) containing 1% penicillin-streptomycin, 10% heat-inactivated fetal bovine serum, and 0.5 mM glutamine. After 24 h, the medium was replaced with Neurobasal containing 1× B27 supplement (Life Technologies), 1% penicillin-streptomycin, 0.5 mM glutamine, and 12.5 μM glutamate. After 3 days in vitro (DIV3), the cells were treated with compounds. All compounds tested in the dendritogenesis assays were treated at 10 μM unless noted otherwise. Stock solutions of the compounds in DMSO were first diluted 100-fold in Neurobasal before an additional 10-fold dilution into each well (total dilution=1:1000; 0.1% DMSO concentration). Treatments were randomized. After 1 h, the media was removed and replaced with new Neurobasal media containing 1× B27 supplement, 1% penicillin-streptomycin, 0.5 mM glutamine, and 12.5 μM glutamate. The cells were allowed to grow for an additional 71 h. At that time, neurons were fixed by removing 80% of the media and replacing it with a volume of 4% aqueous paraformaldehyde (Alfa Aesar) equal to 50% of the working volume of the well. Then, the cells were incubated at room temperature for 20 min before the fixative was aspirated and each well washed twice with DPBS. Cells were permeabilized using 0.2% Triton X-100 (ThermoFisher) in DPBS for 20 minutes at room temperature without shaking. Plates were blocked with antibody diluting buffer (ADB) containing 2% bovine serum albumin (BSA) in DPBS for 1 h at room temperature. Then, plates were incubated overnight at 4° C. with gentle shaking in ADB containing a chicken anti-MAP2 antibody (1:10,000; EnCor, CPCA-MAP2). The next day, plates were washed three times with DPBS and once with 2% ADB in DPBS. […]

cortical neurons [3] = assay: Ketanserin blocking experiments (dendritogenesis); type: cell-based, rat; conditions: ketanserin 10 μM, drug 1 μM (FIG. 7)
Method: Ketanserin Blocking Experiments. For the ketaserin blocking experiments (FIG. 7), a slightly modified method was employed. On DIV 3, neurons were first treated with ketanserin (10 μM) for 1 h followed by a 1 h incubation with drug (1 μM) and ketanserin (10 μM) (final concentration of DMSO=0.2%). After 1 h, the media was removed and replaced with new Neurobasal media containing 1× B27 supplement, 1% penicillin-streptomycin, 0.5 mM glutamine, and 12.5 μM glutamate. The cells were allowed to grow for an additional 71 h before being fixed, stained, and imaged.

C57BL/6J mice = assay: Head twitch response (HTR) assay; type: in vivo, mouse; conditions: intraperitoneal injection, head-twitches over 20 mins (FIG. 8, FIG. 9)
Text: as §1
Head twitch response experiments. Mice (9-10 weeks old) were injected intraperitoneally with compound (injection volume 5 ml/kg), placed in an empty cage, and filmed for 20 minutes. Cages were cleaned with 70% ethanol between experiments.

rats = rats trained to discriminate DOM from saline; cited from earlier work
5HT2A sensor [4] = assay: 5HT2A sensor assay, antagonist mode (sLight1.3s HEK293T stable line); type: cell-based; conditions: dose response (FIG. 12A, FIG. 12B)
Method in brief: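 Inactivation score is computed from membrane dFF as (dFF(compound+5HT)−dFF(5HT))/dFF(5HT), with HBSS-only fluorescence as Fapo. Final concentrations: 5-HT 100 nM added first, then compound at 100 nM, 10 μM or 100 μM in 0.1% DMSO. Triplicates; FITC imaging, 5 fields per well.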

C57/BL6J mice = assay: Forced swim test (FST); type: in vivo, mouse; conditions: 24 h after drug administration; i.p., compounds 20 mg/kg, ketamine 3 mg/kg
Method: Forced Swim Test. As increased cortical structural plasticity in the anterior parts of the brain mediates the sustained (>24 h) antidepressant-like effects of ketamine and play a role in the therapeutic effects of 5-HT2A agonists, the impact of IsoDMT analogs on forced swim test (FST) behavior (FIG. 14A and FIG. 14B) was evaluated. First, a pretest was used to induce a depressive phenotype. Compounds were administered 24 h after the pre-test, and the FST was performed 24 h and 7 d post drug administration.
Forced Swim Test (FST). Male C57/BL6J mice (9-10 weeks old at time of experiment) were obtained from the Jackson Lab and housed 4-5 mice/cage in a UCD vivarium following an IACUC approved protocol. After 1 week in the vivarium each mouse was handled for approximately 1 minute by a experimenter for 3 consecutive days leading up to the first FST. […] Immobility scores for all mice were determined after the pre-test and mice were randomly assigned to treatment groups to generate groups with similar average immobility scores to be used for the following two FST sessions. […] Experiments were video-recorded and manually scored offline. Immobility time—defined as passive floating or remaining motionless with no activity other than that needed to keep the mouse's head above water—was scored for the last 4 min of the 6 min trial.

SMILES | activation of 5HT2A sensor assay in agonist mode at 10 μM (5HT2A sensor [1]) | activation of 5HT2A sensor assay in agonist mode (dose response) (5HT2A sensor [1]) | Emax at 10 µM (cortical neurons [2]) | effect of 5-HT2A antagonist pretreatment on increase in dendritic growth (cortical neurons [3]) | head-twitch response (hallucinogenic potential) (C57BL/6J mice) | substitution for hallucinogenic training drug (DOM) in drug discrimination (rats) | competition with 5-HT in 5HT2A sensor assay, antagonist mode (dose response) (5HT2A sensor [4]) | immobility in forced swim test (C57/BL6J mice)
COc1ccc2[nH]cc(CCN(C)C)c2c1 [Example 28, 2-(5-methoxy-1H-indol-3-yl)-N,N-dimethylethan-1-amine, reference compound] | activate the 5HT2A sensor assay in agonist mode | activate | 80% | blocked | robust, dose-dependent HTR | substitutes |  | 
COc1ccc2c(CCN(C)C)c[nH]c2c1 [Example 30, 2-(6-methoxy-1H-indol-3-yl)-N,N-dimethylethan-1-amine, reference compound] | do not activate the 5HT2A sensor assay in agonist mode | do not | 72% |  | did not produce a HTR | does not | compete off 5-HT | 
CNC1(c2ccccc2Cl)CCCCC1=O (stereo not shown) [ketamine, reference compound] |  |  |  |  |  |  |  | significantly reduced immobility
